Source: patent US10336763B1, “Crystal form B of ribociclib succinate” (Chunghwa Chemical Synthesis & Biotech Co. Ltd., priority 2018, dated 2019)

Test: crystalline stability in constant temperature and humidity chamber
Format: physicochemical
[1] = 25° C./75% RH, summary of 1 to 7 days
[2] = 80° C./75% RH, summary of 1 to 7 days
[3] = powder exposed to 25° C., 75%RH, 1 day
[4] = powder exposed to 25° C., 75%RH, 3 days
[5] = powder exposed to 25° C., 75%RH, 7 days
[6] = powder exposed to 80° C., 75%RH, 1 day
[7] = powder exposed to 80° C., 75%RH, 3 days
[8] = powder exposed to 80° C., 75%RH, 7 days

| SMILES | crystalline form (crystalline stability) [1] | crystalline form (crystalline stability) [2] | crystalline form (crystalline stability) [3] | crystalline form (crystalline stability) [4] | crystalline form (crystalline stability) [5] | crystalline form (crystalline stability) [6] | crystalline form (crystalline stability) [7] | crystalline form (crystalline stability) [8] |
| --- | --- | --- | --- | --- | --- | --- | --- | --- |
| CN(C)C(=O)c1cc2cnc(Nc3ccc(N4CCNCC4)cn3)nc2n1C1CCCC1.O=C(O)CCC(=O)O [Ribociclib succinate in crystalline form A] [butanedioicacid-7-cyclopentyl-N,N-dimethyl-2-[(5-piperazin-1-ylpyridin-2-yl)amino]pyrrolo[2,3-D]pyrimidine-6-carboxamide] | maintained its crystalline form | transformed from crystalline form A to crystalline form B | Stayed as A | Stayed as A | Stayed as A | Transformed from A to B | Transformed from A to B | Transformed from A to B |
| CN(C)C(=O)c1cc2cnc(Nc3ccc(N4CCNCC4)cn3)nc2n1C1CCCC1.O=C(O)CCC(=O)O [Ribociclib succinate in crystalline form B] [butanedioicacid-7-cyclopentyl-N,N-dimethyl-2-[(5-piperazin-1-ylpyridin-2-yl)amino]pyrrolo[2,3-D]pyrimidine-6-carboxamide] | maintained its crystalline form and did not transform to other crystalline forms | maintained its crystalline form and did not transform to other crystalline forms | Stayed as B | Stayed as B | Stayed as B | Stayed as B | Stayed as B | Stayed as B |
